Patent US7202280B2, “Methods for the treatment and prevention of pancreatitis and for induction of liver regeneration” (priority 2002, dated 2007)

System: syngenic and metallothionein-SSAT mice
Test: Hepatic, pancreatic and renal polyamine concentration in syngenic and metallothionein-SSAT mice after analogue
Type: in vivo, mouse
Conditions: Tg (transgenic) mice, 24 h before sacrifice
Protocol: α-methylspermidine, Bis-α-methylspermine and α-methylspermine were administered in saline. […] The data are expressed as means ±S.D. For statistical analysis, the two-tailed Student's t test was used.

## CC(N)CCNCCCCNCCCN (stereo not drawn) [α-methylspermine, 1-methylspermine]
12.5 mg/kg
  pancreatic concentration, α-Methylspermine: 132.85 ± 26.34 pmoles/mg tissue wet weight
  pancreatic polyamine concentration, N^1-Acetylspermidine: 154.67 pmoles/mg tissue wet weight
  pancreatic polyamine concentration, Putrescine: 5691.31 pmoles/mg tissue wet weight
  pancreatic polyamine concentration, Spermidine: 2304.42 pmoles/mg tissue wet weight
  pancreatic polyamine concentration, Spermine: 42.35 pmoles/mg tissue wet weight
  renal concentration, α-Methylspermine: 198.34 ± 10.11 pmoles/mg tissue wet weight
  renal polyamine concentration, N^1-Acetylspermidine: 38.55 pmoles/mg tissue wet weight
  renal polyamine concentration, N^8-Acetylspermidine: 24.62 pmoles/mg tissue wet weight
  renal polyamine concentration, Putrescine: 58.16 pmoles/mg tissue wet weight
  renal polyamine concentration, Spermidine: 247.60 pmoles/mg tissue wet weight
  renal polyamine concentration, Spermine: 208.03 pmoles/mg tissue wet weight
25 mg/kg
  hepatic concentration, α-Methylspermidine: 197.89 ± 47.51 pmoles/mg tissue wet weight
  hepatic concentration, α-Methylspermine: 145.99 pmoles/mg tissue wet weight
  hepatic polyamine concentration, N^1-Acetylspermidine: 317.98 pmoles/mg tissue wet weight
  hepatic polyamine concentration, N^8-Acetylspermidine: 36.49 pmoles/mg tissue wet weight
  hepatic polyamine concentration, Putrescine: 872.47 pmoles/mg tissue wet weight
  hepatic polyamine concentration, Spermidine: 349.61 pmoles/mg tissue wet weight
  hepatic polyamine concentration, Spermine: 49.71 pmoles/mg tissue wet weight
  pancreatic concentration, α-Methylspermine: 130.62 ± 33.84 pmoles/mg tissue wet weight
  pancreatic polyamine concentration, N^1-Acetylspermidine: 327.88 pmoles/mg tissue wet weight
  pancreatic polyamine concentration, Putrescine: 5798.24 pmoles/mg tissue wet weight
  pancreatic polyamine concentration, Spermidine: 2449.50 pmoles/mg tissue wet weight
  pancreatic polyamine concentration, Spermine: 37.63 pmoles/mg tissue wet weight
  renal concentration, α-Methylspermine: 227.76 ± 11.79 pmoles/mg tissue wet weight
  renal polyamine concentration, N^1-Acetylspermidine: 42.95 pmoles/mg tissue wet weight
  renal polyamine concentration, N^8-Acetylspermidine: 25.16 pmoles/mg tissue wet weight
  renal polyamine concentration, Putrescine: 68.39 pmoles/mg tissue wet weight
  renal polyamine concentration, Spermidine: 156.66 pmoles/mg tissue wet weight
  renal polyamine concentration, Spermine: 209.57 pmoles/mg tissue wet weight
37.5 mg/kg
  hepatic concentration, α-Methylspermidine: 274.07 ± 18.43 pmoles/mg tissue wet weight
  hepatic concentration, α-Methylspermine: 203.75 pmoles/mg tissue wet weight
  hepatic polyamine concentration, N^1-Acetylspermidine: 180.48 pmoles/mg tissue wet weight
  hepatic polyamine concentration, N^8-Acetylspermidine: 14.15 pmoles/mg tissue wet weight
  hepatic polyamine concentration, Putrescine: 774.33 pmoles/mg tissue wet weight
  hepatic polyamine concentration, Spermidine: 305.70 pmoles/mg tissue wet weight
  hepatic polyamine concentration, Spermine: 47.47 pmoles/mg tissue wet weight
  pancreatic concentration, α-Methylspermine: 105.85 ± 91.76 pmoles/mg tissue wet weight
  pancreatic polyamine concentration, N^1-Acetylspermidine: 176.49 pmoles/mg tissue wet weight
  pancreatic polyamine concentration, Putrescine: 7426.10 pmoles/mg tissue wet weight
  pancreatic polyamine concentration, Spermidine: 2106.09 pmoles/mg tissue wet weight
  pancreatic polyamine concentration, Spermine: 51.89 pmoles/mg tissue wet weight
  renal concentration, α-Methylspermine: 224.06 ± 27.10 pmoles/mg tissue wet weight
  renal polyamine concentration, N^1-Acetylspermidine: 32.33 pmoles/mg tissue wet weight
  renal polyamine concentration, N^8-Acetylspermidine: 24.59 pmoles/mg tissue wet weight
  renal polyamine concentration, Putrescine: 95.60 pmoles/mg tissue wet weight
  renal polyamine concentration, Spermidine: 233.85 pmoles/mg tissue wet weight
  renal polyamine concentration, Spermine: 158.91 pmoles/mg tissue wet weight
50 mg/kg
  hepatic concentration, α-Methylspermidine: 255.30 ± 60.90 pmoles/mg tissue wet weight
  hepatic concentration, α-Methylspermine: 168.36 pmoles/mg tissue wet weight
  hepatic polyamine concentration, N^1-Acetylspermidine: 265.90 pmoles/mg tissue wet weight
  hepatic polyamine concentration, Putrescine: 1057.25 pmoles/mg tissue wet weight
  hepatic polyamine concentration, Spermidine: 196.67 pmoles/mg tissue wet weight
  hepatic polyamine concentration, Spermine: 38.02 pmoles/mg tissue wet weight
  pancreatic concentration, α-Methylspermine: 185.90 ± 20.82 pmoles/mg tissue wet weight
  pancreatic polyamine concentration, N^1-Acetylspermidine: 284.83 pmoles/mg tissue wet weight
  pancreatic polyamine concentration, Putrescine: 9027.03 pmoles/mg tissue wet weight
  pancreatic polyamine concentration, Spermidine: 3570.11 pmoles/mg tissue wet weight
  pancreatic polyamine concentration, Spermine: 70.53 pmoles/mg tissue wet weight
  renal concentration, α-Methylspermine: 319.33 ± 19.28 pmoles/mg tissue wet weight
  renal polyamine concentration, N^1-Acetylspermidine: 44.20 pmoles/mg tissue wet weight
  renal polyamine concentration, N^8-Acetylspermidine: 24.48 pmoles/mg tissue wet weight
  renal polyamine concentration, Putrescine: 91.94 pmoles/mg tissue wet weight
  renal polyamine concentration, Spermidine: 155.85 pmoles/mg tissue wet weight
  renal polyamine concentration, Spermine: 205.04 pmoles/mg tissue wet weight
